Data taken from patent US11766470B2, “Manufacture, formulation and dosing of apraglutide” (VectivBio AG, priority 2020, dated 2023).
Square brackets hold non-standard residues; d marks the D form. Peptide text beside a SMILES is read from it. ξ: configuration not given here. Ile(3ξ) = CCC(C)[C@H](N)C(=O)O; Thr(3ξ) = CC(O)[C@H](N)C(=O)O; Nle = CCCC[C@H](N)C(=O)O

How the values were obtained:
patients with SBS-IF = experiment: Safety assessments (adverse events) in Phase 2 SBS-IF trial (Example 5)
Description: In Part A, patients were treated with 5 mg apraglutide or placebo once weekly for 4 weeks. After a washout period of 6-10 weeks, the alternate treatment was given. Part A was followed by a second washout period of 6-10 weeks before patients entered Part B. Part B was an open-label dosing regimen with 10 mg apraglutide given once weekly for 4 weeks. The additional open-label treatment period (Part B) was included to investigate the safety and tolerability of 10 mg dosing. The procedures during each treatment period were consistent. The trial drug was provided as a freeze-dried powder for reconstitution and was administered as subcutaneous injections in the abdominal area.
Safety assessments were performed for each treatment period and included observation for injection site reactions, vital signs, blood samples, electrocardiogram (ECG), dipstick urinalysis, body weight and liver enzymes. […] Additionally, liver enzymes were measured prior to each drug administration.

hGLP-2 receptor = target: T1, hGLP-2 receptor (Homo sapiens, UniProt O95838); experiment: hGLP-2 receptor transcriptional reporter gene assay (cAMP-responsive luciferase) in HEK-293 cells (Example 2); assay type: cell-based
T1 construct: expressed in transfected cells; host or cells: HEK-293 (human embryonic kidney), transient transfection
T1 sequence (O95838 1-553): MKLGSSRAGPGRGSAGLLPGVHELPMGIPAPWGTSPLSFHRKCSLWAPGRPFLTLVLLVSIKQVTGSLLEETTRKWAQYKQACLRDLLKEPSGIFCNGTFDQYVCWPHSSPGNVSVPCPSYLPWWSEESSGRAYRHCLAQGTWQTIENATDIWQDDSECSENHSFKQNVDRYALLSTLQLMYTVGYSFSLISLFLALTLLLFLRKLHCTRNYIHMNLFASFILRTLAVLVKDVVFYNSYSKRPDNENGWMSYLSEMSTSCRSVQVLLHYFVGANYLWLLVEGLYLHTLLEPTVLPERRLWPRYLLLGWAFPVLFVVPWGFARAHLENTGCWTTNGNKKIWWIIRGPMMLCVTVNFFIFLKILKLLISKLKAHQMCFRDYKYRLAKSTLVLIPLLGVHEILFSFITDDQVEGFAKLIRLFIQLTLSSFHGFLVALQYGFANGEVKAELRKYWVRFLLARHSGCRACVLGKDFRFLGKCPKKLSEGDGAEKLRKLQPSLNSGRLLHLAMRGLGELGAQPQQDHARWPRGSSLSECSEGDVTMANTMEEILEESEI
Source text: To determine activities of GLP-2 agonists of the present disclosure on the hGLP-2 receptor, a transcriptional reporter gene assay is used. Two constructs are transiently transfected into a human embryonic kidney cell line (HEK-293): an hGLP-2 receptor expression DNA construct and a reporter DNA construct containing intracellular cAMP-responsive promoter elements regulating expression of firefly luciferase. (See for example HimmLer et al., J. Recept. Res., (1993), 13, […] for further guidance on this assay.)
Cells are exposed for 5 hours to serial dilutions of compounds diluted half-log per dose. After exposure to compounds, cells are lysed, luciferase activity is determined, and compound efficacies and EC50 values are determined by non-linear regression analysis. hGLP-2, a naturally occurring 33-amino acid peptide ligand, is used as an internal control in each experiment.

[1] = test system: anti-apraglutide antibodies; experiment: Anti-apraglutide antibodies ELISA in serum, Phase 2 metabolic balance trial (Example 6); assay type: in vivo, human
Description: Blood samples for analysis of the plasma concentration of apraglutide and plasma concentration of fasting L-citrulline, a marker of enterocyte mass, were collected at baseline, during first and second injection (pre-dose and at sequential timepoints), four days after first injection and at the end of treatment. Blood sampling for apraglutide pharmacokinetics was also performed after the fourth and last injection covering 96 hours. […] Blood samples for anti-apraglutide antibodies were collected at baseline, at the end of treatment and at the 4-6 weeks follow-up visit. All eight patients tested negative for anti-apraglutide antibodies at baseline.
A fully validated ELISA method was used for the detection of anti-apraglutide antibodies in serum, following a three-tiered assay approach. In the first tier, anti-apraglutide antibodies present in samples and controls bonded to apraglutide immobilized on a microtiter plate. The bound anti-apraglutide antibodies were then detected with protein A/G and protein L. A sample with a signal above the validated screening cut-point was considered potentially positive and was then tested in the second tier, the confirmatory assay. For this, samples were pre-treated with an excess of apraglutide prior to testing them in the assay described above. […] Titers were then determined by serial dilution of all confirmed positive samples.

[2] = whole trial, incl. placebo periods

CCCC[C@H](NC(=O)[C@H](CCC(=O)O)NC(=O)[C@H](CC(=O)O)NC(=O)[C@H](CO)NC(=O)[C@H](Cc1ccccc1)NC(=O)[C@H](CO)NC(=O)CNC(=O)[C@H](CC(=O)O)NC(=O)CNC(=O)[C@@H](N)Cc1c[nH]cn1)C(=O)N[C@H](Cc1ccccc1)C(=O)N[C@H](C(=O)N[C@H](C(=O)N[C@@H](CC(C)C)C(=O)N[C@@H](CC(=O)O)C(=O)N[C@@H](CC(C)C)C(=O)N[C@@H](CC(C)C)C(=O)N[C@@H](C)C(=O)N[C@@H](C)C(=O)N[C@@H](CCCNC(=N)N)C(=O)N[C@@H](CC(=O)O)C(=O)N[C@@H](Cc1ccccc1)C(=O)N[C@H](C(=O)N[C@@H](CC(N)=O)C(=O)N[C@@H](Cc1c[nH]c2ccccc12)C(=O)N[C@@H](CC(C)C)C(=O)N[C@H](C(=O)N[C@@H](CCC(N)=O)C(=O)N[C@H](C(=O)N[C@@H](CCCCN)C(=O)N[C@H](C(=O)N[C@H](C(=O)N[C@@H](CC(=O)O)C(N)=O)C(C)O)C(C)CC)C(C)O)C(C)CC)C(C)CC)C(C)CC)C(C)O (stereo partly drawn) [apraglutide, L-histidyl-glycyl-L-aspartyl-glycyl-L-seryl-L-phenylalanyl-L-seryl-L-aspartyl-L-glutamyl-L-norleucyl-D-phenylalanyl-L-threonyl-Lisoleucyl-L-leucyl-L-aspartyl-L-leucyl-L-leucyl-L-alanyl-L-alanyl-L-arginyl-L-aspartyl-L-phenylalanyl-L-isoleucyl-L-asparaginyl-Ltryptophanyl-L-leucyl-L-isoleucyl-L-glutaminyl-L-threonyl-L-lysyl-L-isoleucyl-L-threonyl-Laspartic acid amide] (H-HGDGSFSDE[Nle][dF][Thr(3ξ)][Ile(3ξ)]LDLLAARDF[Ile(3ξ)]NWL[Ile(3ξ)]Q[Thr(3ξ)]K[Ile(3ξ)][Thr(3ξ)]D-NH2)
Any related adverse events, number of patients (patients with SBS-IF; 5 mg (N = 8)): 8 | Decreased appetite, number of patients (patients with SBS-IF; 5 mg (N = 8)): 1 | Edema, number of patients (patients with SBS-IF; 5 mg (N = 8)): 2 | Gastrointestinal stoma complication, number of patients (patients with SBS-IF; 5 mg (N = 8)): 5 | Gastrointestinal stoma output abnormal, number of patients (patients with SBS-IF; 5 mg (N = 8)): 4 | Gastrointestinal stoma output decreased, number of patients (patients with SBS-IF; 5 mg (N = 8)): 3 | Increased weight, number of patients (patients with SBS-IF; 5 mg (N = 8)): 1 | Polyuria, number of patients (patients with SBS-IF; 5 mg (N = 8)): 4 | Stoma complication, number of patients (patients with SBS-IF; 5 mg (N = 8)): 6 | Thirst decreased, number of patients (patients with SBS-IF; 5 mg (N = 8)): 3 | Injection site reactions, number of patients (patients with SBS-IF; 5 mg dose group): one | Any related adverse events, number of patients (patients with SBS-IF; 10 mg (N = 8)): 8 | Decreased appetite, number of patients (patients with SBS-IF; 10 mg (N = 8)): 2 | Edema, number of patients (patients with SBS-IF; 10 mg (N = 8)): 2 | Gastrointestinal stoma complication, number of patients (patients with SBS-IF; 10 mg (N = 8)): 5 | Gastrointestinal stoma output abnormal, number of patients (patients with SBS-IF; 10 mg (N = 8)): 4 | Gastrointestinal stoma output decreased, number of patients (patients with SBS-IF; 10 mg (N = 8)): 6 | Increased weight, number of patients (patients with SBS-IF; 10 mg (N = 8)): 2 | Polyuria, number of patients (patients with SBS-IF; 10 mg (N = 8)): 6 | Stoma complication, number of patients (patients with SBS-IF; 10 mg (N = 8)): 6 | Thirst decreased, number of patients (patients with SBS-IF; 10 mg (N = 8)): 4 | Injection site reactions, number of patients (patients with SBS-IF; 10 mg dose group): three | Safety and tolerability in words (patients with SBS-IF; 5 and 10 mg once weekly for four weeks): well tolerated and safe | Any related adverse events, number of patients (patients with SBS-IF; Total, all periods (N = 8)): 8 | Decreased appetite, number of patients (patients with SBS-IF; Total, all periods (N = 8)): 3 | Edema, number of patients (patients with SBS-IF; Total, all periods (N = 8)): 4 | Gastrointestinal stoma complication, number of patients (patients with SBS-IF; Total, all periods (N = 8)): 5 | Gastrointestinal stoma output abnormal, number of patients (patients with SBS-IF; Total, all periods (N = 8)): 5 | Gastrointestinal stoma output decreased, number of patients (patients with SBS-IF; Total, all periods (N = 8)): 6 | Increased weight, number of patients (patients with SBS-IF; Total, all periods (N = 8)): 3 | Polyuria, number of patients (patients with SBS-IF; Total, all periods (N = 8)): 7 | Stoma complication, number of patients (patients with SBS-IF; Total, all periods (N = 8)): 6 | Thirst decreased, number of patients (patients with SBS-IF; Total, all periods (N = 8)): 5 | Deaths (patients with SBS-IF; whole trial): no deaths | Injection site reactions, number of patients (patients with SBS-IF; whole trial): Three | Serious adverse events related to the trial drug (patients with SBS-IF; whole trial): None of these were considered related to the trial drug | Patients reporting serious adverse events (patients with SBS-IF; [2]): 5 patients | Serious adverse events, number of cases (patients with SBS-IF; [2]): 8 cases | Agonist activity, potency and selectivity at the GLP-2 receptor, in words (hGLP-2 receptor): selective, full agonist of the GLP-2 receptor with potency and selectivity comparable to native GLP-2 | Patients who developed anti-apraglutide antibodies ([1]; during the trial, patient with SBS-IF): One | Effects of anti-apraglutide antibodies on PK profile, pharmacodynamic response, adverse events ([1]; in vivo): No effects of anti-apraglutide antibodies were detected
